Species on record: Rattus norvegicus
Test: Open TG-GATES - Regimen: Daily Repeat
Type: toxicity, organism-based, Sprague-Dawley
Design: regimen Daily Repeat, gender Male, age 6 weeks
Settings: in vivo, iv, route intravenous injection; for APTT / Bas / Eos / Fbg / Hb / Ht / Lym / MCH / MCHC / MCV / Mono / Neu / PT / Plat / RBC / Ret / WBC: tissue Blood; for KIDNEY_L / KIDNEY_R / KIDNEY_TOTAL: tissue Kidney; for LIVER: tissue Liver; for A/G / ALP / ALT / AST / BUN / CRE / Ca / Cl / DBIL / GLC / IP / K / LDH / Na / PL / RALB / TBIL / TC / TG / TP / gamma-GTP: tissue Plasma
[1] = 0 mg/kg, 72 h, dose level Control, time 3 day
[2] = 0 mg/kg, […], dose level Control, time 7 day
[3] = 0 mg/kg, […], dose level Control, time 14 day
[4] = 0 mg/kg, […], dose level Control, time 28 day
[5] = 4 mg/kg, 72 h, dose level Low, time 3 day
[6] = 4 mg/kg, […], dose level Low, time 7 day
[7] = 4 mg/kg, […], dose level Low, time 14 day
[8] = 4 mg/kg, […], dose level Low, time 28 day

CN(C)c1ncnc2c1ncn2[C@@H]1O[C@H](CO)[C@@H](N)[C@H]1O [PUROMYCIN AMINONUCLEOSIDE]
TERMINAL_BW [1]: 230.5 g
APTT [1]: 22.1 s
Bas [1]: 0%
Eos [1]: 1%
Fbg [1]: 290.4 mg/dL
Hb [1]: 12.9 g/dL
Ht [1]: 37.6%
Lym [1]: 76.8%
MCH [1]: 21.1 pg
MCHC [1]: 34.2%
MCV [1]: 61.7 fL
Mono [1]: 2.6%
Neu [1]: 18.8%
PT [1]: 16.1 s
Plat [1]: 127.4 x10_4/uL
RBC [1]: 610 x10_4/ul
Ret [1]: 5.7%
WBC [1]: 113.8 x10_2/uL
KIDNEY_L [1]: 1 g
KIDNEY_R [1]: 1 g
KIDNEY_TOTAL [1]: 2 g
LIVER [1]: 10.3 g
A/G [1]: 1.3
ALP [1]: 1374.2 IU/L
ALT [1]: 40.6 IU/L
AST [1]: 74 IU/L
BUN [1]: 17.2 mg/dL
CRE [1]: 0.2 mg/dL
Ca [1]: 10.9 mg/dL
Cl [1]: 106.6 meq/L
DBIL [1]: 0 mg/dL
GLC [1]: 195.8 mg/dL
IP [1]: 6.8 mg/dL
K [1]: 4.7 meq/L
LDH [1]: 183.8 IU/L
Na [1]: 142.2 meq/L
PL [1]: 141.6 mg/dL
RALB [1]: 3.1 g/dL
TBIL [1]: 0.008 mg/dL
TC [1]: 73.2 mg/dL
TG [1]: 95.2 mg/dL
TP [1]: 5.4 g/dL
gamma-GTP [1]: 1.8 IU/L
TERMINAL_BW [2]: 262.2 g
TERMINAL_BW [3]: 322.5 g
TERMINAL_BW [4]: 396.1 g
APTT [2]: 22.5 s
Bas [2]: 0%
Eos [2]: 1%
Fbg [2]: 274.8 mg/dL
Hb [2]: 13.7 g/dL
Ht [2]: 39.4%
Lym [2]: 80.4%
MCH [2]: 21.3 pg
MCHC [2]: 34.9%
MCV [2]: 61 fL
Mono [2]: 2%
Neu [2]: 15.6%
PT [2]: 16 s
Plat [2]: 111 x10_4/uL
RBC [2]: 645.6 x10_4/ul
Ret [2]: 4.8%
WBC [2]: 97.9 x10_2/uL
APTT [3]: 22 s
Bas [3]: 0%
Eos [3]: 0.8%
Fbg [3]: 293.8 mg/dL
Hb [3]: 14 g/dL
Ht [3]: 39.5%
Lym [3]: 79.4%
MCH [3]: 20.6 pg
MCHC [3]: 35.5%
MCV [3]: 58.3 fL
Mono [3]: 3.2%
Neu [3]: 15%
PT [3]: 16.3 s
Plat [3]: 109.5 x10_4/uL
RBC [3]: 679 x10_4/ul
Ret [3]: 3.4%
WBC [3]: 120 x10_2/uL
APTT [4]: 25.7 s
Bas [4]: 0%
Eos [4]: 1%
Fbg [4]: 299.6 mg/dL
Hb [4]: 15.2 g/dL
Ht [4]: 42.3%
Lym [4]: 74.6%
MCH [4]: 19.6 pg
MCHC [4]: 35.8%
MCV [4]: 54.8 fL
Mono [4]: 3.4%
Neu [4]: 19.6%
PT [4]: 16.3 s
Plat [4]: 105.3 x10_4/uL
RBC [4]: 772.2 x10_4/ul
Ret [4]: 2.2%
WBC [4]: 111.8 x10_2/uL
KIDNEY_L [2]: 1 g
KIDNEY_R [2]: 1.1 g
KIDNEY_TOTAL [2]: 2.1 g
KIDNEY_L [3]: 1.2 g
KIDNEY_R [3]: 1.2 g
KIDNEY_TOTAL [3]: 2.4 g
KIDNEY_L [4]: 1.3 g
KIDNEY_R [4]: 1.3 g
KIDNEY_TOTAL [4]: 2.7 g
LIVER [2]: 12.2 g
LIVER [3]: 13.6 g
LIVER [4]: 14.9 g
A/G [2]: 1.2
ALP [2]: 1257.2 IU/L
ALT [2]: 35.4 IU/L
AST [2]: 63 IU/L
BUN [2]: 17.6 mg/dL
CRE [2]: 0.2 mg/dL
Ca [2]: 10.7 mg/dL
Cl [2]: 105.6 meq/L
DBIL [2]: 0 mg/dL
GLC [2]: 210.6 mg/dL
IP [2]: 7.3 mg/dL
K [2]: 4 meq/L
LDH [2]: 167.4 IU/L
Na [2]: 142 meq/L
PL [2]: 141.6 mg/dL
RALB [2]: 3 g/dL
TBIL [2]: 0.018 mg/dL
TC [2]: 67.2 mg/dL
TG [2]: 108.8 mg/dL
TP [2]: 5.5 g/dL
gamma-GTP [2]: 1.4 IU/L
A/G [3]: 1.3
ALP [3]: 1494.8 IU/L
ALT [3]: 36.8 IU/L
AST [3]: 69.4 IU/L
BUN [3]: 19.2 mg/dL
CRE [3]: 0.2 mg/dL
Ca [3]: 10.9 mg/dL
Cl [3]: 104.6 meq/L
DBIL [3]: 0 mg/dL
GLC [3]: 204.2 mg/dL
IP [3]: 7.2 mg/dL
K [3]: 4.3 meq/L
LDH [3]: 176.8 IU/L
Na [3]: 141.6 meq/L
PL [3]: 144.4 mg/dL
RALB [3]: 3.1 g/dL
TBIL [3]: 0.006 mg/dL
TC [3]: 65.8 mg/dL
TG [3]: 119.8 mg/dL
TP [3]: 5.6 g/dL
gamma-GTP [3]: 2 IU/L
A/G [4]: 1
ALP [4]: 1115.6 IU/L
ALT [4]: 31 IU/L
AST [4]: 60.5 IU/L
BUN [4]: 18.6 mg/dL
CRE [4]: 0.2 mg/dL
Ca [4]: 10.4 mg/dL
Cl [4]: 104.2 meq/L
DBIL [4]: 0 mg/dL
GLC [4]: 184.8 mg/dL
IP [4]: 6.1 mg/dL
K [4]: 4.2 meq/L
LDH [4]: 174 IU/L
Na [4]: 142.6 meq/L
PL [4]: 133.4 mg/dL
RALB [4]: 3.1 g/dL
TBIL [4]: 0.01 mg/dL
TC [4]: 68.2 mg/dL
TG [4]: 101.2 mg/dL
TP [4]: 6.1 g/dL
gamma-GTP [4]: 2 IU/L
TERMINAL_BW [5]: 232.9 g
APTT [5]: 20.8 s
Bas [5]: 0%
Eos [5]: 1%
Fbg [5]: 318.6 mg/dL
Hb [5]: 13.1 g/dL
Ht [5]: 38.3%
Lym [5]: 78.6%
MCH [5]: 21.3 pg
MCHC [5]: 34.3%
MCV [5]: 62.1 fL
Mono [5]: 3%
Neu [5]: 16.2%
PT [5]: 15.9 s
Plat [5]: 136.9 x10_4/uL
RBC [5]: 616 x10_4/ul
Ret [5]: 5.3%
WBC [5]: 98.6 x10_2/uL
KIDNEY_L [5]: 1 g
KIDNEY_R [5]: 1 g
KIDNEY_TOTAL [5]: 1.9 g
LIVER [5]: 10.2 g
A/G [5]: 1.3
ALP [5]: 1424.8 IU/L
ALT [5]: 40.8 IU/L
AST [5]: 73.4 IU/L
BUN [5]: 17.4 mg/dL
CRE [5]: 0.2 mg/dL
Ca [5]: 11.1 mg/dL
Cl [5]: 104.2 meq/L
DBIL [5]: 0 mg/dL
GLC [5]: 189.4 mg/dL
IP [5]: 7.6 mg/dL
K [5]: 4.4 meq/L
LDH [5]: 200.6 IU/L
Na [5]: 141.6 meq/L
PL [5]: 149.2 mg/dL
RALB [5]: 3 g/dL
TBIL [5]: 0.02 mg/dL
TC [5]: 76 mg/dL
TG [5]: 102.2 mg/dL
TP [5]: 5.5 g/dL
gamma-GTP [5]: 1.2 IU/L
TERMINAL_BW [6]: 256.3 g
TERMINAL_BW [7]: 310.3 g
TERMINAL_BW [8]: 371.4 g
APTT [6]: 21 s
Bas [6]: 0%
Eos [6]: 1.4%
Fbg [6]: 282.8 mg/dL
Hb [6]: 13.4 g/dL
Ht [6]: 38.8%
Lym [6]: 76.4%
MCH [6]: 20.5 pg
MCHC [6]: 34.4%
MCV [6]: 59.4 fL
Mono [6]: 2%
Neu [6]: 19.2%
PT [6]: 15.9 s
Plat [6]: 118.6 x10_4/uL
RBC [6]: 654.8 x10_4/ul
Ret [6]: 3.7%
WBC [6]: 112.4 x10_2/uL
APTT [7]: 23.5 s
Bas [7]: 0%
Eos [7]: 0.8%
Fbg [7]: 303.4 mg/dL
Hb [7]: 13.6 g/dL
Ht [7]: 38.9%
Lym [7]: 77.8%
MCH [7]: 20.7 pg
MCHC [7]: 35%
MCV [7]: 59.1 fL
Mono [7]: 2.4%
Neu [7]: 18%
PT [7]: 16.3 s
Plat [7]: 133.5 x10_4/uL
RBC [7]: 658 x10_4/ul
Ret [7]: 4.7%
WBC [7]: 105.4 x10_2/uL
APTT [8]: 23.1 s
Bas [8]: 0%
Eos [8]: 1.6%
Fbg [8]: 538.4 mg/dL
Hb [8]: 14.5 g/dL
Ht [8]: 40%
Lym [8]: 72.8%
MCH [8]: 20.2 pg
MCHC [8]: 36.3%
MCV [8]: 55.6 fL
Mono [8]: 3.2%
Neu [8]: 21.8%
PT [8]: 14.6 s
Plat [8]: 134.3 x10_4/uL
RBC [8]: 719.6 x10_4/ul
Ret [8]: 2.5%
WBC [8]: 156.1 x10_2/uL
KIDNEY_L [6]: 1 g
KIDNEY_R [6]: 1.1 g
KIDNEY_TOTAL [6]: 2.1 g
KIDNEY_L [7]: 1.2 g
KIDNEY_R [7]: 1.3 g
KIDNEY_TOTAL [7]: 2.5 g
KIDNEY_L [8]: 1.5 g
KIDNEY_R [8]: 1.4 g
KIDNEY_TOTAL [8]: 2.9 g
LIVER [6]: 11 g
LIVER [7]: 12.6 g
LIVER [8]: 16.8 g
A/G [6]: 1.2
ALP [6]: 1296.4 IU/L
ALT [6]: 37.8 IU/L
AST [6]: 67.8 IU/L
BUN [6]: 17 mg/dL
CRE [6]: 0.2 mg/dL
Ca [6]: 10.6 mg/dL
Cl [6]: 107.2 meq/L
DBIL [6]: 0 mg/dL
GLC [6]: 180.6 mg/dL
IP [6]: 6.7 mg/dL
K [6]: 4.1 meq/L
LDH [6]: 149.6 IU/L
Na [6]: 142.6 meq/L
PL [6]: 139.4 mg/dL
RALB [6]: 3 g/dL
TBIL [6]: 0.014 mg/dL
TC [6]: 73.4 mg/dL
TG [6]: 87.8 mg/dL
TP [6]: 5.5 g/dL

From ChEMBL document CHEMBL3885861, “Open TG-GATES”
